Where a name gives a salt, the structure may show the parent alone. Read-outs that look alike come from different tables or passages of the source.
Key:
[1] = tested on: cGMP levels in the rat brain; details: for incr vs contr (pmol cGMP/ml) (measured): increase versus control
[2] = tested on: Apomorphine-induced agitation in rats; experiment: Inhibition of apomorphine-induced agitation in rats in combination with Compound A and Compound B (FIGS. 4, 5); type: in vivo, rat; details: -1 h
[3] = tested on: Apomorphine-induced agitation in rats; experiment: Inhibition of apomorphine-induced agitation in rats in combination with MP-10; type: in vivo, rat; details: SC, MP-10 (0.63 mg/kg) + apomorphine (1.0 mg/kg) i.v.
Method: Inhibition of Apomorphine-induced Agitation in Rats in combination with MP-10 but the animals were simultaneously challenged with MP-10 (0.63 mg/kg) in addition to apomorphine (1.0 mg/kg) via one injection (2 ml/kg, i.v.), at a fixed time interval (standard 1 h) after s.c. or p.o. dosing of test compound or solvent. Twelve times, every 5 min, the intensity of agitation was scored 0 to 3.

[4] = tested on: d-Amphetamine-induced hyperlocomotion in rats; experiment: d-Amphetamine-induced hyperlocomotion in rats: potentiation of the effect of MP-10; type: in vivo, rat; details: SC, d-amphetamine (1.25 mg/kg, s.c.) + MP-10 (2.5 mg/kg, s.c.)
[5] = tested on: d-Amphetamine-induced hyperlocomotion in rats; experiment: Inhibition of d-amphetamine-induced hyperlocomotion in rats in combination with Compound A and Compound B (FIGS. 9, 10); type: in vivo, rat; details: B-1a 0.63-5.0 mg/kg s.c., -1 h
[6] = tested on: d-Amphetamine-induced hyperlocomotion in rats; experiment: d-Amphetamine-induced hyperlocomotion in rats: MP-10 or B-1a alone (FIGS. 6-8); type: in vivo, rat
[7] = tested on: Apomorphine-induced agitation in rats; experiment: Inhibition of apomorphine-induced agitation in rats (APO); details: for Dose at max effect / Max effect (lowest median cumulative agitation score) / LAD (lowest active dose): SC; for Max effect (lowest median cumulative agitation score): at the dose at max effect; for LAD (lowest active dose): lowest dose at which >=67% tested animals respond
[8] = molecular target: Rat recombinant PDE10A (rPDE10A2) (Rattus norvegicus (Rat), UniProt Q9QYJ6); experiment: In vitro assay PDE10A (SPA, 3H-cAMP); type: biochemical
Rat recombinant PDE10A (rPDE10A2), sequence (Q9QYJ6 whole entry): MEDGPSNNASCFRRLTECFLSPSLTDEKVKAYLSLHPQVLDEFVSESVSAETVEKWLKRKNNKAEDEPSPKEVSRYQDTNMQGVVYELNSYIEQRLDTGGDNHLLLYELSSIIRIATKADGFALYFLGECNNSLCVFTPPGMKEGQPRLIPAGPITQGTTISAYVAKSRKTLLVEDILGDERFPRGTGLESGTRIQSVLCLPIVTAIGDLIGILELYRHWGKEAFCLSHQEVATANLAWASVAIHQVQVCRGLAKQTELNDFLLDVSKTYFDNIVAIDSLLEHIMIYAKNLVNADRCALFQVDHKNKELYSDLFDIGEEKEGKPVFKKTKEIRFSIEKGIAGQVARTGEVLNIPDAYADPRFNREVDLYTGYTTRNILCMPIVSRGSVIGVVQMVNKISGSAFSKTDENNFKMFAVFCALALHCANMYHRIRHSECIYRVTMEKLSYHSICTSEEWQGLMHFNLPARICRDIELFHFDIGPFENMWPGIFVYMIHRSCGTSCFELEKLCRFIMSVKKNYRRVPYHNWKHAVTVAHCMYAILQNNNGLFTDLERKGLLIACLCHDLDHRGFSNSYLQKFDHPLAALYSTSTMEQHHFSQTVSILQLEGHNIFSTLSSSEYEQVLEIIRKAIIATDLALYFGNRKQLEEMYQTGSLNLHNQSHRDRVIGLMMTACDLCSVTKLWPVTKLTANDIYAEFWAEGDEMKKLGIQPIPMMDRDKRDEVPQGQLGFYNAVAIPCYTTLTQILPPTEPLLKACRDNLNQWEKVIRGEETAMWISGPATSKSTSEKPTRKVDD

[9] = molecular target: Human recombinant PDE2A (hPDE2A) (Homo sapiens (Human), UniProt O00408); experiment: In vitro assay PDE2A (SPA, 3H-cGMP); type: biochemical; details: -log IC50 expressed in mol/L
Human recombinant PDE2A (hPDE2A), sequence (O00408 whole entry): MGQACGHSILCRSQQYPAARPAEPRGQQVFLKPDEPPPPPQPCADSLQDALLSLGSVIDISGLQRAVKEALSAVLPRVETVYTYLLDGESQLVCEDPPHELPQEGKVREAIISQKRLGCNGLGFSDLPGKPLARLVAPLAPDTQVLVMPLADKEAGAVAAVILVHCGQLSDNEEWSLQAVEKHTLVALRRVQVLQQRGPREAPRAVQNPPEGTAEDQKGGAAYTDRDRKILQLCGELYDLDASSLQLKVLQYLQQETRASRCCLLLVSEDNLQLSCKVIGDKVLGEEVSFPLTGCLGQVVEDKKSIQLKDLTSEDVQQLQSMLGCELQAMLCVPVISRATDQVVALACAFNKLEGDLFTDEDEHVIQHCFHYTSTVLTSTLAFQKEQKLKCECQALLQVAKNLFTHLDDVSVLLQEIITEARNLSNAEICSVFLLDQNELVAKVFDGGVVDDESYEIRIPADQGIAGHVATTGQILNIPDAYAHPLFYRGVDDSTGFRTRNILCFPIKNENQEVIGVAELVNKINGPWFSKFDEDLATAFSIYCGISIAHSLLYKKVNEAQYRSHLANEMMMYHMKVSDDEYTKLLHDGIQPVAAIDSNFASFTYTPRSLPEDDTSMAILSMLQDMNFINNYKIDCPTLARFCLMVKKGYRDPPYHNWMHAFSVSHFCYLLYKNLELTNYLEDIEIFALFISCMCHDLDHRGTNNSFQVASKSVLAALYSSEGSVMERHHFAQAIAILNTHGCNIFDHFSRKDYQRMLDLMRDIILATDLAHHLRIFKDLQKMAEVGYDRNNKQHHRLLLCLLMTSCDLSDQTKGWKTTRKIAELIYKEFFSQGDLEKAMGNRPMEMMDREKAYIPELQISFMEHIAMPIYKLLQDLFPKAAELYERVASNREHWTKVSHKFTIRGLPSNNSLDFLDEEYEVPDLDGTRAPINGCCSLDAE

[10] = tested on: cAMP and cGMP levels in the rat brain (hippocampus and striatum); details: in vivo
PDE2 [11] = molecular target: T1, PDE2 (Rattus norvegicus (Rat), UniProt Q01062); experiment: Potentiation of in vivo [3H]B-1a binding to PDE2 by MP-10 (ex vivo autoradiography)
T1 sequence (Q01062 whole entry): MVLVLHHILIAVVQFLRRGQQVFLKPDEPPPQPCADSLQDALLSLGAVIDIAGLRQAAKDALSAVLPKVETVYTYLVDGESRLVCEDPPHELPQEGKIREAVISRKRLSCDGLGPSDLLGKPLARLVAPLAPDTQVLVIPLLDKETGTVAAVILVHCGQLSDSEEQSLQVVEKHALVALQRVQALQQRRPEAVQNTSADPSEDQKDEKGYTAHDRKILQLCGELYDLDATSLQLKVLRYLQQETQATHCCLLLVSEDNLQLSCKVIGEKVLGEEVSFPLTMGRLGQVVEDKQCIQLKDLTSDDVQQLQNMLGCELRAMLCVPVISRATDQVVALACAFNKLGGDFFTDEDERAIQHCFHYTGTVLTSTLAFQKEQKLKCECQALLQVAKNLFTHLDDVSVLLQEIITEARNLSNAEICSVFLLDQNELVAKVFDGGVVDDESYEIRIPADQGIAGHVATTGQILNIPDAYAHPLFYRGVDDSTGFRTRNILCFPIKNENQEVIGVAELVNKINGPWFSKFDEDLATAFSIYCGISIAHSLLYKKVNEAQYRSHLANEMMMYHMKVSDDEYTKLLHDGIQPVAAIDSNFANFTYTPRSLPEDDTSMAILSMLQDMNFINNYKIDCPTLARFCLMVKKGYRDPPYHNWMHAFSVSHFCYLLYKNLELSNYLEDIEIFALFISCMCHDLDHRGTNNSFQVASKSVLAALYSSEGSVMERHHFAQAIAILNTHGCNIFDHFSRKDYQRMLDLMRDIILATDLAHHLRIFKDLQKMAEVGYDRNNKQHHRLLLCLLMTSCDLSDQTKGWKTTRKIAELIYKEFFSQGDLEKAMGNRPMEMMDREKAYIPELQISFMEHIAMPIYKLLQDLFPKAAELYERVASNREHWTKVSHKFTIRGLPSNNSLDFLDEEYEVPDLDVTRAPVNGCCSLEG

[12] = tested on: Apomorphine-induced agitation in rats; experiment: Apomorphine-induced agitation: MP-10 (s.c.) dose-response with co-administered B-1a (FIGS. 1-3); type: in vivo, rat
PDE2 [13] = molecular target: T1, PDE2; details: rat brain sections

Q: What does the source list for CCCCOc1cncc(-c2nnc3c(C)nc4ccc(CN5CCOCC5)cc4n23)c1 [Compound B-1a, 1-(5-Butoxypyridin-3-yl)-4-methyl-8-(morpholin-4-ylmethyl) [1,2,4]triazolo[4,3-a]quinoxaline hydrochloride]?
A: incr vs contr (pmol cGMP/ml) (measured) ([1]; 2.5 mpk): 5.4 pmol cGMP/ml; incr vs contr (pmol cGMP/ml) (measured) ([1]; 10 mpk): 9.7 pmol cGMP/ml; effect on apomorphine-induced agitation combined with Compound A or Compound B ([2]; B-1a 5.0 mg/kg s.c., PDE10-i 2.5 mg/kg s.c.): significantly potentiated the effect of both PDE10-is; effect on apomorphine-induced agitation combined with the solvent of the PDE10-is ([2]; B-1a 0.63-5.0 mg/kg s.c.): did not affect apomorphine-induced agitation; Inh. of agitation < 10 Effect (cumulative agitation score) ([3]; Time 60, dose 0.63): 18; Inh. of agitation < 10 Effect (cumulative agitation score) ([3]; Time 60, dose 1.25): 10; Inh. of agitation < 10 Effect (cumulative agitation score) ([3]; Time 60, dose 2.5): 11; Inh. of agitation < 10 Effect (cumulative agitation score) ([3]; Time 60, dose 5): 6; Inh. of agitation < 10 Effect (cumulative agitation score) ([3]; Time 60, dose 10): 7; Inh. of agitation < 10 Effect (cumulative agitation score) ([3]; Time 60, dose 40): 1; Distance Total <2500 cm Effect ([4]; Time -60, dose 0.31): 3066 cm; Distance Total <2500 cm Effect ([4]; Time -60, dose 0.63): 2525 cm; Distance Total <2500 cm Effect ([4]; Time -60, dose 1.25): 1664 cm; Distance Total <2500 cm Effect ([4]; Time -60, dose 2.5): 1659 cm; Distance Total <2500 cm Effect ([4]; Time -60, dose 5): 1281 cm; Distance Total <2500 cm Effect ([4]; Time -60, dose 10): 727.6 cm; effect on d-amphetamine-induced hyperlocomotion combined with the solvent of the PDE10-is [5]: ineffective against the d-amphetamine-induced hyperlocomotion; effect on d-amphetamine-induced hyperlocomotion combined with Compound A or Compound B ([5]; PDE10-i 2.5 mg/kg s.c.): potentiated the effect of both PDE10-is; effect against d-amphetamine-induced hyperlocomotion, alone ([6]; 40 mg/kg s.c., 1 h): ineffective per se; Dose at max effect [7]: 40; Max effect (lowest median cumulative agitation score) [7]: 23; LAD (lowest active dose) [7]: >40; effect against apomorphine-induced agitation, administered alone ([7]; without MP-10, at the tested doses): ineffective against apomorphine

Q: For Cc1nc2ccc(CN3CCOCC3)cc2n2c(-c3ccccc3Cl)nnc12 [Compound B-3, 1-(2-Chlorophenyl)-4-methyl-8-(morpholin-4-ylmethyl)[1,2,4]triazolo[4,3-a]-quinoxaline], which “PIC50 PDE10” value ([8]; -log IC50 expressed in mol/L) is on record?
A: The value was 7.47.

Q: And the “pIC50 PDE2” value [9]?
A: Its value is 8.64.

Q: And the “Dose at max effect” value [7]?
A: Its value is 5.

Q: And the “Max effect (lowest median cumulative agitation score)” value [7]?
A: Its value is 14.

Q: What about the “LAD (lowest active dose)” value [7] of the same compound?
A: The value was 5.

Q: CCCCOc1ccc(Cl)c(-c2nnc3c(C)nc4ccc(CN(C)C)cc4n23)c1 [Compound B-11] was tested. Which “PIC50 PDE10” value [8] did it give?
A: Its value is 5.67.

Q: What about the “Hippocampus cAMP (% of Control)” value [10] of the same compound?
A: The value was 117 ± 20 % of Control.

Q: What about the “Hippocampus cGMP (% of Control)” value [10] of the same compound?
A: Its value is 150 ± 42 % of Control.

Q: And the “Striatum cAMP (% of Control)” value [10]?
A: Its value is 88 ± 12 % of Control.

Q: And the “Striatum cGMP (% of Control)” value [10]?
A: Its value is 121 ± 20 % of Control.

Q: And the “Inh. of agitation < 10 Effect (cumulative agitation score)” value ([3]; Time 60, dose 2.5)?
A: Its value is 17.

Q: And the “Inh. of agitation < 10 Effect (cumulative agitation score)” value ([3]; Time 60, dose 10)?
A: Its value is 7.

Q: What about the “Distance Total <2500 cm Effect” value ([4]; Time -60, dose 2.5) of the same compound?
A: The value was 3494 cm.

Q: What about the “Distance Total <2500 cm Effect” value ([4]; Time -60, dose 10) of the same compound?
A: Its value is 1960 cm.

Q: Which results are given for CCCCOc1cncc(-c2nnc3c(C)nc4ccc(CN(C)C)cc4n23)c1 [Compound B-27]?
A: PIC50 PDE10 [8]: 5.03; Hippocampus cAMP (% of Control) [10]: 122 ± 10 % of Control; Hippocampus cGMP (% of Control) [10]: 104 ± 32 % of Control; Striatum cAMP (% of Control) [10]: 89 ± 6 % of Control; Striatum cGMP (% of Control) [10]: 128 ± 26 % of Control; Inh. of agitation < 10 Effect (cumulative agitation score) ([3]; Time 60, dose 10): 14; Distance Total <2500 cm Effect ([4]; Time -60, dose 2.5): 4145 cm; Distance Total <2500 cm Effect ([4]; Time -60, dose 10): 2500 cm

Q: With COC(=O)[C@@H](N)CCCNC(=N)N[N+](=O)[O-] [L-NAME] as the compound, how does the “effect of pre-treatment on potentiation of [3H]B-1a binding by MP-10” value (PDE2 [11]; pre-treatment) read?
A: The value was “prevented the potentiation”.

Q: With Cn1cc(-c2ccncc2)c(-c2ccc(OCc3ccc4ccccc4n3)cc2)n1 [MP-10, 2-{[4-(1-methyl-4-pyridin-4-yl-1H-pyrazol-3-yl)phenoxy]methyl}quinoline] as the compound, how does the “mean nmol cGMP/ml” value ([1]; 2.5 mpk) read?
A: The value was 8.7 nmol cGMP/ml.

Q: What about the fold increase ([1]; cGMP vs vehicle, 2.5 mpk) of the same compound?
A: Its fold increase is 1.4.

Q: What about the “incr vs contr (pmol cGMP/ml) (measured)” value ([1]; 2.5 mpk) of the same compound?
A: Its value is 2.4 pmol cGMP/ml.

Q: What about the “in vivo [3H]B-1a binding expressed as % of binding in vehicle-treated rats, AVG” value (from here on “in vivo [3H]B-1a binding expressed as %”) (PDE2 [11]; dose MP-10 0.63 mpk) of the same compound?
A: The value was 80%.

Q: What about the “in vivo [3H]B-1a binding expressed as %” value (PDE2 [11]; dose MP-10 2.5 mpk) of the same compound?
A: The value was 302%.

Q: And the “in vivo [3H]B-1a binding expressed as %” value (PDE2 [11]; dose MP-10 10 mpk)?
A: Its value is 501%.

Q: And the “in vivo [3H]B-1a binding expressed as %” value (PDE2 [11]; dose MP-10 40 mpk)?
A: The value was 739%.

Q: What about the ED50 ([6]; Rattus norvegicus, sc, read-out: ED50 for reducing d-amphetamine-induced hyperlocomotion to a distance <1000 cm, MP-10 (-1 h, s.c.) alone, historical data) of the same compound?
A: Its ED50 is greater than 40 mg/kg.

Q: And the “effect on d-amphetamine-induced hyperlocomotion, alone” value ([6]; up to 40 mg/kg s.c.)?
A: The value was “almost never achieves values <2500 cm”.

Q: And the “effect on apomorphine-induced agitation (median score)” value ([12]; MP-10 -1 h, s.c., with B-1a or solvent)?
A: The value was “dose-dependently inhibited agitation”.

Q: What about the “median agitation scores <10” value ([12]; MP-10 up to 10 mg/kg, co-administered B-1a <=0.63 mg/kg) of the same compound?
A: Its value is “not obtained”.

Q: With O=P1(O)OCC2O[C@@H](n3cnc4ccccc43)[C@H](O)C2O1 (stereo partly shown) [cBIMP] as the compound, how does the “effect on specific binding of [3H]B-1a” value (PDE2 [13]) read?
A: Its value is “increase the specific binding”.

Reference: patent US9669035B2, “Combinations comprising PDE 2 inhibitors such as 1-aryl-4-methyl-[1,2,4]triazolo-[4,3-A]]quinoxaline compounds and PDE 10 inhibitors for use in the treatment of neurological of metabolic disorders” (Janssen Pharmaceutica NV, priority 2012, dated 2017)
